Assay [1] concerns the target T1, Androgen receptor (Homo sapiens) (UniProt P10275).
T1 sequence (whole entry): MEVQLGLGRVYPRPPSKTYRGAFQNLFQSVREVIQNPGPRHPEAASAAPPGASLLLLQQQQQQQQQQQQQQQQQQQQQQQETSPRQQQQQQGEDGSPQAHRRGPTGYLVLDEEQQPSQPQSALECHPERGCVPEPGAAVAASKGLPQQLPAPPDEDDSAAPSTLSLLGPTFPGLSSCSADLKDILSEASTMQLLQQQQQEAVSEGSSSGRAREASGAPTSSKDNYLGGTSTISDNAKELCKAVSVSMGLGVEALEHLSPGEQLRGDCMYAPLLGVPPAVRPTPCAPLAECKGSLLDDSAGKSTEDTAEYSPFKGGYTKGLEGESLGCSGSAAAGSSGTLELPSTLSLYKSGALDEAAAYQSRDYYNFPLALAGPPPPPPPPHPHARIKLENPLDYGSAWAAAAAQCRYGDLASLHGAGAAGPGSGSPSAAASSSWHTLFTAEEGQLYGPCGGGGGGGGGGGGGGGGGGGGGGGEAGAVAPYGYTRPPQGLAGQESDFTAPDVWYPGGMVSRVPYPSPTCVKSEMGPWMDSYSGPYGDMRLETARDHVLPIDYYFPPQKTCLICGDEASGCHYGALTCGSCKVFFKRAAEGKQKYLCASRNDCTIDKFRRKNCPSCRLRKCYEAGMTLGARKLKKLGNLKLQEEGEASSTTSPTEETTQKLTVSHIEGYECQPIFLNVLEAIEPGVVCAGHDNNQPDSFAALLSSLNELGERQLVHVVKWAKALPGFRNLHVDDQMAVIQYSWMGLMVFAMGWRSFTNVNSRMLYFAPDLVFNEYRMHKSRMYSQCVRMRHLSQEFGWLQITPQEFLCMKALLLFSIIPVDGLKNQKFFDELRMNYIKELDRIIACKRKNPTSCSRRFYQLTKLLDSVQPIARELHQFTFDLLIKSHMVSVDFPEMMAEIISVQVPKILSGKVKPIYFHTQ
Nature of the assay: Reduction in DHT-induced Androgen receptor activity.

Assay [2] addresses T1, Androgen receptor (Homo sapiens). Nature of the assay: Antagonistic activity against Androgen receptor in DU-145 human prostate cancer cells. Format: functional, cell-based.
For assay [3] the target is unchanged. Kind of assay: Antagonistic activity against Androgen receptor in PC-3 human prostate cancer cells. Format: functional, cell-based.

The structures appear in SMILES notation.

Compound `COc1ccc(CCC(=O)CC(O)CCc2ccc(OC)c(OC)c2)cc1OC` (stereo unspecified) gave a Reduction in assay [1] of 18%.
Turning to `CCOC(O)=C(C(=O)/C=C/c1ccc(O)c(OC)c1)C(=O)/C=C/c1ccc(O)c(OC)c1`, in assay [2], the Reduction was determined as 53.8%.
`COc1ccc(CCC(=O)CC(=O)CCc2ccc(OC)c(OC)c2)cc1OC` gave a Reduction in assay [1] of 18%.
As for `COc1ccc(/C=C/C(=O)/C=C(O)/C=C/c2ccc(OC)c(OC)c2)cc1OC`, the Reduction in assay [2] was found to be 45%; in assay [3], 70%.
Consider `COC(=O)COc1ccc(/C=C/C(=O)/C=C(O)/C=C/c2ccc(OCC(=O)OC)c(OC)c2)cc1OC`, for which the Reduction in assay [2] was 54%.
